In US20210085640A1, “ACYLATED CATECHIN POLYPHENOLS AND METHODS OF THEIR USE FOR THE TREATMENT OF CANCER” (Flagship Pioneering Innovations V, Inc., priority 2018, published 2021):

Key:
[1] = Fecal Incubation Stability; type: in vitro ADME; settings: fecal slurry, anaerobic, 1 or 10 μM
Description: Fecal Incubation Stability. This assay was used to assess the stability of an acylated active agent in a large intestine. All experiments were performed in an anaerobic chamber containing 90% nitrogen, 5% hydrogen and 5% carbon dioxide. Fecal matter in a slurry (15% VW is added to 96 well plates containing YCFA media or other suitable media (1.6 mL). Compounds were added to each individual well to reach a final analyte concentration of 1 or 10 μM, and the material was mixed by pipetting. At set time points a sample was removed, quenched with acetonitrile, and analyzed by LC/MS.

[2] = Stability in Simulated Intestinal Fluid (SIF); type: in vitro ADME; settings: for Assay 2 (SIF) (% @ Remaining 4 hours): SIF pH 6.7 with pancreatin, 1 μM, 37° C.; for selective delivery to the upper intestine: conclusion drawn from Table 1 (SGF and SIF stability)
Description: SIF Stability of acylated active agents in Simulated Intestinal Fluid (SIF). This assay was used to assess the stability of an acylated active agent in a small intestine.
Phosphate buffer was prepared by dissolving 0.42 g of sodium hydroxide pellets and 3.95 g of monobasic sodium phosphate monohydrate and 6.19 g of sodium chloride in ultrapure water (MilliQ®, Millipore Sigma, Darmstadt, Germany). The pH was adjusted to 6.7 using aq. HCl and aq. NaOH, as necessary, and the solution was diluted with ultrapure water to produce 1 L of the pH 6.7 buffer.
112 mg FaSSIF powder (Biorelevant™, London, UK) was dissolved in 50 mL of the pH 6.7 buffer. 2 to 3 mL of the resulting solution were then added to 500 mg pancreatin (Millipore Sigma, Darmstadt, Germany). The resulting mixture was agitated by finger tapping the vessel containing the mixture until milky suspension formed. At this time, the remainder of the 50 mL FaSSiF/pH 6.7 buffer solution was added. The resulting suspension was flipped upside down 10 times to produce SIF, which was used fresh.
Test compounds were dissolved in DMSO stock to 1 mM. An aliquot of the DMSO stock solution was removed and diluted in the SIF media in 15 mL falcon tubes to produce a mixture with a tested compound concentration of 1 μM. A 1 mL aliquot was immediately removed and diluted once with 1 volume of acetonitrile for T0 timepoint. The mixture was sealed and agitated at 37° C. in an incubator. Aliquots (1 mL) were removed at regular intervals and immediately quenched by the addition of 1 volume of acetonitrile. The resulting samples were analyzed by LC/MS to determine degradation rates.

[3] = Stability in Simulated Gastric Fluid (SGF); type: in vitro ADME; settings: SGF pH 1.6 with pepsin, 1 μM, 37° C.
Description: Stability of acylated active agents in Simulated Gastric Fluid (SGF). This assay was used to assess the stability of an acylated active agent in a stomach.
Medium was prepared by dissolving 2 g of sodium chloride in 0.6 L in ultrapure water (MilliQ®, Millipore Sigma, Darmstadt, Germany). The pH was adjusted to 1.6 with 1N hydrochloric acid, and the volume was then adjusted to 1 L with purified water.
60 mg FaSSIF powder (Biorelevant™, London, UK) were dissolved in 500 mL buffer (above). Pepsin was added (0.1 mg/mL) (Millipore Sigma, Darmstadt, Germany), and the solution was stirred. The resulting SGF media were used fresh for each experiment.
Test compounds were dissolved in DMSO stock to 1 mM. An aliquot of the DMSO stock solution was removed and diluted in the SGF Media in 15 mL falcon tubes to generate a total compound concentration of 1 μM. A 1 mL aliquot was immediately removed and diluted once with 1 volume of acetonitrile for T0 timepoint. The mixture was sealed and mixed at 37° C. in an incubator. Aliquots (1 mL) were removed at regular intervals and immediately quenched by the addition of 1 volume of acetonitrile. The resulting samples were analyzed by LC/MS to determine degradation rates

CD4^+CD25^+ Treg cells = assay: In vivo induction of CD4+CD25+ Treg cells in high-fat diet fed mice; settings: C57BL/6 mice fed a high-fat diet; 6% in diet ad libitum; compared to EGCG, acetate, or their combination as separate compounds
Excerpt: Acylated catechin polyphenols disclosed herein may be useful in modulating cancer markers and for treating cancer.

Row | Structure (SMILES) | Assay 3 (% Remaining at 24 h) [1] | Assay 2 (SIF) (% @ Remaining 4 hours) [2] | Assay 1 (SGF) (% Remaining @ 1 hours) [3] | selective delivery to the upper intestine [2] | induction of CD4^+CD25^+ Treg cells (CD4^+CD25^+ Treg cells)
1 | CCCC(=O)Oc1cc(OC(=O)CCC)c2c(c1)O[C@H](c1cc(OC(=O)CCC)c(OC(=O)CCC)c(OC(=O)CCC)c1)[C@H](OC(=O)c1cc(OC(=O)CCC)c(OC(=O)CCC)c(OC(=O)CCC)c1)C2 [Compound 1, [(2R,3R)-5,7-di(butanoyloxy)-2-[3,4,5-tri(butanoyloxy)phenyl]chroman-3-yl] 3,4,5-tri(butanoyloxy)benzoate] | C (>75% of the tested compound remaining) | C (>75% of the tested compound remaining) | C (>75% of the tested compound remaining) |  | 
2 | CC(=O)Oc1cc(OC(C)=O)c2c(c1)O[C@H](c1cc(OC(C)=O)c(OC(C)=O)c(OC(C)=O)c1)[C@H](OC(=O)c1cc(OC(C)=O)c(OC(C)=O)c(OC(C)=O)c1)C2 [Compound 2, [(2R,3R)-5,7-diacetoxy-2-(3,4,5-triacetoxyphenyl)chroman-3-yl] 3,4,5-triacetoxybenzoate] | A (<25% of the tested compound remaining) | A (<25% of the tested compound remaining) | C (>75% of the tested compound remaining) | can be selectively delivered to the upper intestine | synergistic induction
3 | CCC(=O)Oc1cc(OC(=O)CC)c2c(=O)c(OC(=O)CC)c(-c3ccc(OC(=O)CC)c(OC(=O)CC)c3)oc2c1 [Compound 14, [4-[4-oxo-3,5,7-tri(propanoyloxy)chromen-2-yl]-2-propanoyloxy-phenyl] propanoate] | C (>75% of the tested compound remaining) | C (>75% of the tested compound remaining) | C (>75% of the tested compound remaining) |  | 
4 | CCCC(=O)O[C@H](C)CC(=O)Oc1ccc(/C=C/c2cc(OC(=O)C[C@@H](C)OC(=O)CCC)cc(OC(=O)C[C@@H](C)OC(=O)CCC)c2)cc1 [Compound 16, [4-[(E)-2-[3,5-bis[[(3R)-3-butanoyloxybutanoyl]oxy]phenyl]vinyl]phenyl] (3R)-3-butanoyloxy-butanoate] | A (<25% of the tested compound remaining) |  | C (>75% of the tested compound remaining) |  | 
5 | CCCC(=O)O[C@@H]1[C@@H](OC(=O)CCC)[C@@H](Oc2ccc(N)cc2C(=O)O)OC[C@@H]1OC(=O)CCC [Compound 17, 5-amino-2-[(2R,3R,4S,5S)-3,4,5-tri(butanoyloxy)tetrahydropyran-2-yl]oxy-benzoic acid] | C (>75% of the tested compound remaining) | A (<25% of the tested compound remaining) | C (>75% of the tested compound remaining) | can be selectively delivered to the upper intestine | 
6 | CC(=O)OC[C@H]1O[C@@H](Oc2c(C)c(C)c3c(c2C)CC[C@@](C)(CCC[C@H](C)CCC[C@H](C)CCCC(C)C)O3)[C@H](OC(C)=O)[C@@H](OC(C)=O)[C@@H]1OC(C)=O [Compound 19, [(2R,3R,4S,5R,6S)-3,4,5-triacetoxy-6-[(2R)-2,5,7,8-tetramethyl-2-[(4R,8R)-4,8,12-trimethyltridecyl]chroman-6-yl]oxy-tetrahydropyran-2-yl]methyl acetate] | C (>75% of the tested compound remaining) | C (>75% of the tested compound remaining) | C (>75% of the tested compound remaining) |  | 
